In this experiment the test system is different cell lines (mCherry-GAL9). Description: mCherry-GAL9 response between different cell lines. The experiment is classed as cell-based. As to conditions: 0.31 to 10 μM, 2 hours post-dosing, FIG. 41 and 48. As for the experimental part:
All of the stable cell lines generated from HeLa and Huh7 cells were maintained and cultivated in Dulbecco's modified Eagle's medium (DMEM) with high glucose with GlutaMAX (Gibco, cat. no. 31966-021), 10% fetal bovine serum (gibco, cat. no. 10270-106), and 1% penicillin-streptomycin (gibco, cat. no. 15140-122) at 37° C., 5% CO2 in 95% humidity in T75 TC flask (Sarstedt, 83.3911.002). The cells were detached (trypsin 0.25% EDTA, 10 min) and passaged twice a week. HEK293 and HeLa, HepG2, Huh7 and U2OS mCherry-GAL9 cell lines were maintained in DMEM, NCI-H358 mCherry-GAL9 were maintained in RPMI (Gibco: 32430-027) and SH-SY5Y mCherry-GAL9 were maintained in DMEM/F12 (Gibco: 32430-027). All growth media was supplemented with 10% FBS and 1 μg/ml Puromycin (Gibco: A11138-03) to maintain reporter expression. All cells were routinely tested and mycoplasma negative.
HeLa and Huh7 cells were further submitted to the mCherry-GAL9-recruitment analysis with treatment with select compounds and observed for endosomal rupture at various time points (1 hour, 2 hours, and 16 hours). GAL9 response results at different doses (1.25-5 μM) of the selected compounds are shown in FIG. 33 (Huh7 cells) and FIG. 34 (HeLa cells). […] FIG. 40 further provides additional results comparing time (0.25 to 4 hours), dose of select compounds (0.31 to 10 μM) and GAL9 response in Huh7 cells. […]

The text below walks through data of patent US20260137807A1, “COMPOSITIONS AND METHODS FOR DELIVERING A MACROMOLECULE TO A CELL” (AstraZeneca AB, priority 2022, published 2026).

Structures are written as SMILES.

As to `COc1nn(C2CCNCC2)cc1Nc1ncc(F)c(-n2ccc3c(C#N)cccc32)n1` [Compound 4], the “GAL9 response between different cell lines” value is recorded as “GAL9 responses across multiple cell lines of diverse background origins”.
